Assay results as given in PubChem BioAssay AID1845196 (Molecular Pharmacology Branch, DTP, NCI, 2023).

System: 292921-168-R tumor spheroid viability
Assay: Anticancer human tumor 292921-168-R patient-derived pancreatic carcinoma cell line growth inhibition
Conditions: spheroids with HUVEC and MSC; for IC50: curve of first compound; for viability, T/C: stronger effect = lower value
Outline: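 Single agents and combinations were tested on spheroids built from tumor cells plus HUVEC and hMSC, at half-log dilutions starting at or near clinical Cmax, else 10 microM; final DMSO 0.25% (v/v).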

[1] = second compound 1 µM, first compound 0.0316 µM
[2] = second compound 1 µM, first compound 0.1 µM
[3] = second compound 1 µM, first compound 0.316 µM
[4] = second compound 1 µM, first compound 1 µM
[5] = second compound 1 µM, first compound 3.16 µM
[6] = second compound 1 µM, first compound 10 µM
[7] = second compound 3.16 µM, first compound 0.0316 µM
[8] = second compound 3.16 µM, first compound 0.1 µM
[9] = second compound 3.16 µM, first compound 0.316 µM
[10] = second compound 3.16 µM, first compound 1 µM
[11] = second compound 3.16 µM, first compound 3.16 µM
[12] = second compound 3.16 µM, first compound 10 µM
[13] = second compound 10 µM, first compound 0.0316 µM
[14] = second compound 10 µM, first compound 0.1 µM
[15] = second compound 10 µM, first compound 0.316 µM
[16] = second compound 10 µM, first compound 1 µM
[17] = second compound 10 µM, first compound 3.16 µM
[18] = second compound 10 µM, first compound 10 µM
[19] = second compound 31.6 µM, first compound 0.0316 µM
[20] = second compound 31.6 µM, first compound 0.1 µM
[21] = second compound 31.6 µM, first compound 0.316 µM
[22] = second compound 31.6 µM, first compound 1 µM
[23] = second compound 31.6 µM, first compound 3.16 µM
[24] = second compound 31.6 µM, first compound 10 µM
[25] = second compound 100 µM, first compound 0.0316 µM
[26] = second compound 100 µM, first compound 0.1 µM
[27] = second compound 100 µM, first compound 0.316 µM
[28] = second compound 100 µM, first compound 1 µM
[29] = second compound 100 µM, first compound 3.16 µM
[30] = second compound 100 µM, first compound 10 µM
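Further: spheroids exposed to compounds for 7 days.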

| SMILES | IC50 (second compound 1 µM) [µM] | IC50 (second compound 3.16 µM) [µM] | IC50 (second compound 10 µM) [µM] | IC50 (second compound 31.6 µM) [µM] | IC50 (second compound 100 µM) [µM] | viability, T/C [1] [%] | viability, T/C [2] [%] | viability, T/C [3] [%] | viability, T/C [4] [%] | viability, T/C [5] [%] | viability, T/C [6] [%] | viability, T/C [7] [%] | viability, T/C [8] [%] | viability, T/C [9] [%] | viability, T/C [10] [%] | viability, T/C [11] [%] | viability, T/C [12] [%] | viability, T/C [13] [%] | viability, T/C [14] [%] | viability, T/C [15] [%] | further results |
| --- | --- | --- | --- | --- | --- | --- | --- | --- | --- | --- | --- | --- | --- | --- | --- | --- | --- | --- | --- | --- | --- |
| CC1COCCN1c1cc(-c2ccnn2C)c2ccnc(-c3ccn[nH]3)c2n1 (stereo not given) + Cn1nnc2c(C(N)=O)ncn2c1=O | < 0.0316 | < 0.0316 | < 0.0316 | < 0.0316 | < 0.0316 | 29 | 15.5 | 13 | 13.1 | 14.6 | 15.8 | 30.4 | 17.8 | 14.5 | 13 | 14.2 | 15.8 | 27.9 | 16.2 | 12.1 | viability, T/C [16]: 12.8%; viability, T/C [17]: 15.2%; viability, T/C [18]: 15.6%; viability, T/C [19]: 24.3%; viability, T/C [20]: 17.9%; viability, T/C [21]: 12.5%; viability, T/C [22]: 12.8%; viability, T/C [23]: 13.9%; viability, T/C [24]: 15.3%; viability, T/C [25]: 16.9%; viability, T/C [26]: 11.8%; viability, T/C [27]: 9.95%; viability, T/C [28]: 11.3%; viability, T/C [29]: 13%; viability, T/C [30]: 14.7% |
| COc1cc(C)[nH]c(=O)c1CN1CCc2c(Cl)cc(C(OC)C3COC3)c(Cl)c2C1=O (stereo not given) + Cn1nnc2c(C(N)=O)ncn2c1=O | > 10 | > 10 | > 10 | > 10 | > 10 | 94.7 | 94.7 | 95.4 | 88.7 | 81.6 | 72.6 | 102 | 100 | 93.6 | 79.8 | 88.2 | 84.5 | 93.4 | 87.4 | 98 | viability, T/C [16]: 80.2%; viability, T/C [17]: 84.4%; viability, T/C [18]: 75.2%; viability, T/C [19]: 91.5%; viability, T/C [20]: 94.2%; viability, T/C [21]: 89.4%; viability, T/C [22]: 85.1%; viability, T/C [23]: 78.5%; viability, T/C [24]: 80.2%; viability, T/C [25]: 89.5%; viability, T/C [26]: 91.1%; viability, T/C [27]: 88.1%; viability, T/C [28]: 78%; viability, T/C [29]: 75.9%; viability, T/C [30]: 82% |
